Data: ChEMBL document CHEMBL2074026, “Novel experimental parameters to quantify the modulation of absorptive and secretory transport of compounds by P-glycoprotein in cell culture models of intestinal epithelium” (Pharm Res, 2003)

What was measured:
Assay type in all cases: functional, cell-based
[1] = target: T1, ATP-dependent translocase ABCB1 (Homo sapiens, UniProt P08183); assay: TP_TRANSPORTER: transepithelial transport of Rhodamine at a concentration of 10 uM in Caco-2 cells
[2] = target: T1, ATP-dependent translocase ABCB1; assay: TP_TRANSPORTER: transepithelial transport of Rhodamine at a concentration of 10 uM in MDR1-expressing MDCK cells; settings: dog
[3] = target: T1, ATP-dependent translocase ABCB1; assay: TP_TRANSPORTER: transepithelial transport of Taxol at a concentration of 10 uM in MDR1-expressing MDCK cells; settings: dog
[4] = target: T1, ATP-dependent translocase ABCB1; assay: TP_TRANSPORTER: transepithelial transport of Taxol at a concentration of 10 uM in Caco-2 cells
[5] = target: T1, ATP-dependent translocase ABCB1; assay: TP_TRANSPORTER: transepithelial transport of Methylprednisolone at a concentration of 20 uM in Caco-2 cells; settings: caco-2, 20 µM
[6] = target: T1, ATP-dependent translocase ABCB1; assay: TP_TRANSPORTER: transepithelial transport of Methylprednisolone at a concentration of 20 uM in MDR1-expressing MDCK cells; settings: dog
[7] = target: T1, ATP-dependent translocase ABCB1; assay: TP_TRANSPORTER: transepithelial transport of Ranitidine at a concentration of 100 uM in MDR1-expressing MDCK cells; settings: dog
[8] = target: T1, ATP-dependent translocase ABCB1; assay: TP_TRANSPORTER: transepithelial transport of Ranitidine at a concentration of 100 uM in Caco-2 cells; settings: caco-2, 100 µM
[9] = target: T1, ATP-dependent translocase ABCB1; assay: TP_TRANSPORTER: transepithelial transport of Digoxin at a concentration of 10 uM in Caco-2 cells
[10] = target: T1, ATP-dependent translocase ABCB1; assay: TP_TRANSPORTER: transepithelial transport of Digoxin at a concentration of 10 uM in MDR1-expressing MDCK cells; settings: dog
[11] = target: T1, ATP-dependent translocase ABCB1; assay: TP_TRANSPORTER: transepithelial transport of Colchicine at a concentration of 25 uM in Caco-2 cells; settings: caco-2, 25 µM
[12] = target: T1, ATP-dependent translocase ABCB1; assay: TP_TRANSPORTER: transepithelial transport of Colchicine at a concentration of 25 uM in MDR1-expressing MDCK cells; settings: dog
[13] = target: T1, ATP-dependent translocase ABCB1; assay: TP_TRANSPORTER: transepithelial transport of Doxorubicin at a concentration of 10 uM in Caco-2 cells
[14] = target: T1, ATP-dependent translocase ABCB1; assay: TP_TRANSPORTER: transepithelial transport of Doxorubicin at a concentration of 10 uM in MDR1-expressing MDCK cells; settings: dog
[15] = target: T1, ATP-dependent translocase ABCB1; assay: TP_TRANSPORTER: transepithelial transport of Vinblastine at a concentration of 0.1 uM in MDR1-expressing MDCK cells; settings: dog
[16] = target: T1, ATP-dependent translocase ABCB1; assay: TP_TRANSPORTER: transepithelial transport in the presence of Vinblastine at 0.1 uM in Caco-2 cells
[17] = target: T1, ATP-dependent translocase ABCB1; assay: TP_TRANSPORTER: transepithelial transport of Prednisolone at a concentration of 20 uM in MDR1-expressing MDCK cells; settings: dog
[18] = target: T1, ATP-dependent translocase ABCB1; assay: TP_TRANSPORTER: transepithelial transport of Saquinavir at a concentration of 20 uM in Caco-2 cells; settings: caco-2, 20 µM
[19] = target: T1, ATP-dependent translocase ABCB1; assay: TP_TRANSPORTER: transepithelial transport of Saquinavir at a concentration of 20 uM in MDR1-expressing MDCK cells; settings: dog
[20] = target: T1, ATP-dependent translocase ABCB1; assay: TP_TRANSPORTER: transepithelial transport of Acebutolol at a concentration of 20 uM in Caco-2 cells; settings: caco-2, 20 µM
[21] = target: T1, ATP-dependent translocase ABCB1; assay: TP_TRANSPORTER: transepithelial transport of Acebutolol at a concentration of 20 uM in MDR1-expressing MDCK cells; settings: dog

T1 sequence (P08183 whole entry): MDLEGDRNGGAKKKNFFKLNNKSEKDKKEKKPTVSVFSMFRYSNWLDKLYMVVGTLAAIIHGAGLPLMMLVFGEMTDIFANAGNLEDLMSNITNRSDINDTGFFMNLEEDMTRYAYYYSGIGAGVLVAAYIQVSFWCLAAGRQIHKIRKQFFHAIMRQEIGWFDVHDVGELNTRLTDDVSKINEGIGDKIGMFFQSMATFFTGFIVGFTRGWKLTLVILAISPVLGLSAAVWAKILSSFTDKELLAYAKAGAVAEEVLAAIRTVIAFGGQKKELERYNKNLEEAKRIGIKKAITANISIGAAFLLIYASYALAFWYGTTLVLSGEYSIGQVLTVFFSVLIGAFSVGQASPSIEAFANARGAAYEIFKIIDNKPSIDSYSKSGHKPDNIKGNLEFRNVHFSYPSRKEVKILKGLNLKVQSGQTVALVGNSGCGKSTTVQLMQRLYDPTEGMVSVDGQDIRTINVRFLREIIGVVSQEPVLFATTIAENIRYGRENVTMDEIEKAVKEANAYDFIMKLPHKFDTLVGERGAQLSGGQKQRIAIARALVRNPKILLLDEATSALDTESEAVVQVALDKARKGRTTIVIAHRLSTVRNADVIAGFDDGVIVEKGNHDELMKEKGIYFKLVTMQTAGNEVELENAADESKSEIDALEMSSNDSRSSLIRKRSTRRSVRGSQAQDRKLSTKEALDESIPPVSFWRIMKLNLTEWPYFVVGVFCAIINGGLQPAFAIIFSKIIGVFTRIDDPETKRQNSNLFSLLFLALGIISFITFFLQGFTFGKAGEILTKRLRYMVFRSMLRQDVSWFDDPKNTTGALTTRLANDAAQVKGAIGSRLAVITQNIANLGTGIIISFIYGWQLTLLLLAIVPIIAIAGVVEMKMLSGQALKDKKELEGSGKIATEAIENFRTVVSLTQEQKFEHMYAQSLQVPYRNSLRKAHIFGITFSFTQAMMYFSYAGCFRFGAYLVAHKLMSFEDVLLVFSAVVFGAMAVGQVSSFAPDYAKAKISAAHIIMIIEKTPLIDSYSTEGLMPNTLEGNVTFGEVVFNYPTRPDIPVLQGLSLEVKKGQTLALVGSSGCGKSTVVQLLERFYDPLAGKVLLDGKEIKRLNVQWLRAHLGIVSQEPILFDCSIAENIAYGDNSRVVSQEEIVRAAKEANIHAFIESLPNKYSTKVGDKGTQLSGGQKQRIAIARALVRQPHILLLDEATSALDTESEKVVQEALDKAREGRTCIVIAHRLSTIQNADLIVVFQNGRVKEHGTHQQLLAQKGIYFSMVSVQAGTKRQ

In the case of CCN(CC)c1ccc2c(-c3ccccc3C(=O)O)c3ccc(=[N+](CC)CC)cc-3oc2c1.[Cl-] [RHODAMINE], the Activity [1] is reported as “substrate [+]” and the Activity [2] is reported as “substrate [+]”.
In the case of CC(=O)O[C@H]1C(=O)[C@@]2(C)[C@H]([C@H](OC(=O)c3ccccc3)[C@]3(O)C[C@H](OC(=O)[C@H](O)[C@@H](NC(=O)c4ccccc4)c4ccccc4)C(C)=C1C3(C)C)[C@]1(OC(C)=O)CO[C@@H]1C[C@@H]2O [PACLITAXEL], the Activity [3] is reported as “substrate [+]” and the Activity [4] is reported as “substrate [+]”.
With C[C@H]1C[C@@H]2[C@H]([C@@H](O)C[C@@]3(C)[C@H]2CC[C@]3(O)C(=O)CO)[C@@]2(C)C=CC(=O)C=C12 [METHYLPREDNISOLONE] the Activity [5] was “substrate [+]” and the Activity [6] was “substrate [+]”.
With CNC(=C[N+](=O)[O-])NCCSCc1ccc(CN(C)C)o1 [RANITIDINE] the Activity [7] was “substrate [+]” and the Activity [8] was “substrate [+]”.
C[C@H]1O[C@@H](O[C@H]2[C@@H](O)C[C@H](O[C@H]3[C@@H](O)C[C@H](O[C@H]4CC[C@@]5(C)[C@H](CC[C@@H]6[C@@H]5C[C@@H](O)[C@]5(C)[C@@H](C7=CC(=O)OC7)CC[C@]65O)C4)O[C@@H]3C)O[C@@H]2C)C[C@H](O)[C@@H]1O [DIGOXIN] was tested, and the Activity [9] was “substrate [+]” and the Activity [10] was “substrate [+]”.
COc1cc2c(c(OC)c1OC)-c1ccc(OC)c(=O)cc1[C@@H](NC(C)=O)CC2 [COLCHICINE] was tested, and the Activity [11] was “substrate [+]” and the Activity [12] was “substrate [+]”.
With COc1cccc2c1C(=O)c1c(O)c3c(c(O)c1C2=O)C[C@@](O)(C(=O)CO)C[C@@H]3O[C@H]1C[C@H](N)[C@H](O)[C@H](C)O1 [DOXORUBICIN] the Activity [13] was “substrate [+]” and the Activity [14] was “substrate [+]”.
For CC[C@]1(O)C[C@@H]2CN(CCc3c([nH]c4ccccc34)[C@@](C(=O)OC)(c3cc4c(cc3OC)N(C)[C@H]3[C@@](O)(C(=O)OC)[C@H](OC(C)=O)[C@]5(CC)C=CCN6CC[C@]43[C@@H]65)C2)C1 [VINBLASTINE], the Activity [15] was “substrate [+]” and the Activity [16] was “substrate [+]”.
In the case of C[C@]12C=CC(=O)C=C1CC[C@@H]1[C@@H]2[C@@H](O)C[C@@]2(C)[C@H]1CC[C@]2(O)C(=O)CO [PREDNISOLONE], the Activity [17] is reported as “substrate [+]”.
For CC(C)(C)NC(=O)[C@@H]1C[C@@H]2CCCC[C@@H]2CN1C[C@@H](O)[C@H](Cc1ccccc1)NC(=O)[C@H](CC(N)=O)NC(=O)c1ccc2ccccc2n1, the Activity [18] was “substrate [+]” and the Activity [19] was “substrate [+]”.
With CCCC(=O)Nc1ccc(OCC(O)CNC(C)C)c(C(C)=O)c1 (stereo unspecified) [ACEBUTOLOL] the Activity [20] was “substrate [+]” and the Activity [21] was “substrate [+]”.
